Each molecule was assayed on rhIFNγ stimulated STAT-3 phosphorylation in the A549 human epithelial cell line (assay: A549 Cell Assay: Inhibition of pSTAT3). Conditions: A549 cells.
Assay type: cell-based
Protocol: A549 Cell Assay: Inhibition of pSTAT3
An assay measuring the efficacy of JAK inhibitors on the functional response of recombinant human interferon γ (rhIFNγ) stimulated STAT-3 phosphorylation in the A549 human epithelial cell line.
A549 cells (ATCC #CCL-185), were plated at 30,000 cells/well in 96 well flat bottomed tissue culture plates (BD#353072) in 200 μL of growth medium (DMEM, Pfizer media prep, with 10% Fetal Bovine Serum, Sigma #F4135, 2 mM L-Glutamine, Pfizer media prep, 100 U/mL penicillin, Pfizer media prep, and 200 μg/ml streptomycin, Pfizer media prep), and cultured at 37° C., 5% CO2 incubator for 18 hours. Growth medium was removed by vacuum aspiration (V&P Scientific #vp187 bp-60), and 90 μL of pre-warmed assay medium (DMEM with 0.2% BSA, Miltenyi #130-091-376) was added to each well and incubated for 15 minutes at 37° C. 10 μL of vehicle control or test compound (final concentration range of 0.3 nM to 10 μM with 0.1% DMSO) was added to the cells. Plates were incubated at 37° C. for 1 hour. After compound incubation, 10 μL of 220 ng/mL recombinant human IFNγ (R&D Systems #285-IF, final rhIFNγ concentration of 20 ng/mL) was added to the cells and plates were incubated for 30 minutes at 37° C. Wells containing A549 cells, medium with 0.1% DMSO and no rhIFNγ were used as background controls. After rhIFNγ stimulation, media was aspirated from each well and 35 μL/well of iced-cold MSD lysis buffer containing protease and phosphatase inhibitors from Phospho-STAT3 Tyr705 assay kit (Meso-Scale Discovery #K150DID) was added to each well. Plates were incubated at 4° C. with shaking for 30 minutes. Cell lysates were assayed following the MSD Phospho-STAT3 Tyr705 assay kit protocol to detect pSTAT3.
Data were collected and transformed into percent inhibition and calculated using the following formula: […]

SMILES | IC50 [µM]
CNC(=O)c1n[nH]c2nc(-c3cc(F)c(O)cc3CC(F)(F)F)nc(NCc3ccccc3N(C)S(C)(=O)=O)c12 [Example 94] | 0.126

Same assay, conditions: Homo sapiens; A549 cells

SMILES | IC50 [µM]
CN(c1ncc(Cl)cc1CNc1nc(-c2cc(F)c(O)cc2CC(F)(F)F)cc2[nH]nc(C(N)=O)c12)S(C)(=O)=O [Example 72, 4-[({5-chloro-2-[methyl(methylsulfonyl)amino]pyridin-3-yl}methyl)amino]-6-[5-fluoro-4-hydroxy-2-(2,2,2-trifluoroethyl)phenyl]-1H-pyrazolo[4,3-c]pyridine-3-carboxamide] | 0.0941
CCc1cc(O)c(F)cc1-c1cc2[nH]nc(C(=O)NC)c2c(NCc2ccccc2N(C)S(N)(=O)=O)n1 [Example 73, 6-(2-ethyl-5-fluoro-4-hydroxyphenyl)-N-methyl-4-({2-[methyl(sulfamoyl)amino]benzyl}amino)-1H-pyrazolo[4,3-c]pyridine-3-carboxamide] | 0.0356
CN(c1ncc(F)cc1CNc1nc(-c2cc(F)c(O)cc2CC(F)(F)F)cc2[nH]nc(C(N)=O)c12)S(C)(=O)=O [Example 78, 6-[5-Fluoro-4-hydroxy-2-(2,2,2-trifluoroethyl)phenyl]-4-[({5-fluoro-2-[methyl(methyl-sulfonyl)amino]pyridin-3-yl}methyl)amino]-1H-pyrazolo[4,3-c]pyridine-3-carboxamide] | 0.0272
CCN(c1ncc(F)cc1CNc1nc(-c2cc(F)c(O)cc2CC(F)(F)F)cc2[nH]nc(C(N)=O)c12)S(C)(=O)=O [Example 79, 4-[({2-[ethyl(methylsulfonyl)amino]-5-fluoropyridin-3-yl}methyl)amino]-6-[5-fluoro-4-hydroxy-2-(2,2,2-trifluoroethyl)phenyl]-1H-pyrazolo[4,3-c]pyridine-3-carboxamide] | 0.0307
CCN(c1nccnc1CNc1nc(-c2cc(F)c(O)cc2CC(F)(F)F)cc2[nH]nc(C(N)=O)c12)S(C)(=O)=O [Example 80, 4-[({3-[ethyl(methylsulfonyl)amino]pyrazin-2-yl}methyl)amino]-6-[5-fluoro-4-hydroxy-2-(2,2,2-trifluoroethyl)phenyl]-1H-pyrazolo[4,3-c]pyridine-3-carboxamide] | 0.197
CCN(c1ccccc1CNc1nc(-c2cc(F)c(O)cc2CC(F)(F)F)cc2[nH]nc(C(N)=O)c12)S(=O)(=O)CC [Example 82, 4-((2-(N-ethylethylsulfonamido)benzyl)amino)-6-(5-fluoro-4-hydroxy-2-(2,2,2-trifluoroethyl)phenyl)-1H-pyrazolo[4,3-c]pyridine-3-carboxamide] | 0.0209
CCN(c1ccc(F)cc1CNc1nc(-c2cc(F)c(O)cc2CC(F)(F)F)cc2[nH]nc(C(N)=O)c12)S(C)(=O)=O [Example 83, 4-((2-(N-ethylmethylsulfonamido)-5-fluorobenzyl)amino)-6-(5-fluoro-4-hydroxy-2-(2,2,2-trifluoroethyl)phenyl)-1H-pyrazolo[4,3-c]pyridine-3-carboxamide] | 0.03
CCN(c1ccc(Cl)cc1CNc1nc(-c2cc(F)c(O)cc2CC(F)(F)F)cc2[nH]nc(C(N)=O)c12)S(C)(=O)=O [Example 84, 4-((5-chloro-2-(N-ethylmethylsulfonamido)benzyl)amino)-6-(5-fluoro-4-hydroxy-2-(2,2,2-trifluoroethyl)phenyl)-1H-pyrazolo[4,3-c]pyridine-3-carboxamide] | 0.0329
CCS(=O)(=O)N(C)c1ccccc1CNc1nc(-c2cc(F)c(O)cc2CC(F)(F)F)cc2[nH]nc(C(N)=O)c12 [Example 85, 6-(5-fluoro-4-hydroxy-2-(2,2,2-trifluoroethyl)phenyl)-4-((2-(N-methylethylsulfonamido)benzyl)amino)-1H-pyrazolo[4,3-c]pyridine-3-carboxamide] | 0.0129
CCN(c1ncc(C)cc1CNc1nc(-c2cc(F)c(O)cc2CC(F)(F)F)cc2[nH]nc(C(N)=O)c12)S(C)(=O)=O [Example 87, 4-[({2-[ethyl(methylsulfonyl)amino]-5-methylpyridin-3-yl}methyl)amino]-6-[5-fluoro-4-hydroxy-2-(2,2,2-trifluoroethyl)phenyl]-1H-pyrazolo[4,3-c]pyridine-3-carboxamide] | 0.213
CN(c1ccc(F)cc1CNc1nc(-c2cc(F)c(O)cc2CC(F)(F)F)cc2[nH]nc(C(N)=O)c12)S(C)(=O)=O [Example 88, 6-[5-fluoro-4-hydroxy-2-(2,2,2-trifluoroethyl)phenyl]-4-({5-fluoro-2-[methyl(methylsulfonyl)amino]benzyl}amino)-1H-pyrazolo[4,3-c]pyridine-3-carboxamide] | 0.0315
CN(c1ccc(Cl)cc1CNc1nc(-c2cc(F)c(O)cc2CC(F)(F)F)cc2[nH]nc(C(N)=O)c12)S(C)(=O)=O [Example 89, 4-({5-chloro-2-[methyl(methylsulfonyl)amino]benzyl}amino)-6-[5-fluoro-4-hydroxy-2-(2,2,2-trifluoroethyl)phenyl]-1H-pyrazolo[4,3-c]pyridine-3-carboxamide] | 0.0463
CCN(c1ccccc1CNc1nc(-c2cc(F)c(O)cc2CC(F)(F)F)cc2[nH]nc(C(N)=O)c12)S(C)(=O)=O [Example 90, 4-({2-[ethyl(methylsulfonyl)amino]benzyl}amino)-6-[5-fluoro-4-hydroxy-2-(2,2,2-trifluoroethyl)phenyl]-1H-pyrazolo[4,3-c]pyridine-3-carboxamide] | 0.0304
CCN(c1ccc(C)cc1CNc1nc(-c2cc(F)c(O)cc2CC(F)(F)F)cc2[nH]nc(C(N)=O)c12)S(C)(=O)=O [Example 91, 4-({2-[ethyl(methylsulfonyl)amino]-5-methylbenzyl}amino)-6-[5-fluoro-4-hydroxy-2-(2,2,2-trifluoroethyl)phenyl]-1H-pyrazolo[4,3-c]pyridine-3-carboxamide] | 0.0263
CCc1cc(O)c(F)cc1-c1nc(NCc2ccccc2N(C)S(=O)(=O)c2ccccc2)c2c(C(N)=O)n[nH]c2n1 [Example 95, 6-(2-Ethyl-5-fluoro-4-hydroxyphenyl)-4-((2-(N-methylphenylsulfonamido)benzyl)amino)-1H-pyrazolo[3,4-d]pyrimidine-3-carboxamide] | 0.0599
CN(c1ccccc1CNc1nc(-c2cc(F)c(O)cc2CC(F)(F)F)nc2[nH]nc(C(N)=O)c12)S(=O)(=O)c1ccccc1 [Example 96, 6-(5-Fluoro-4-hydroxy-2-(2,2,2-trifluoroethyl)phenyl)-4-((2-(N-methylphenylsulfonamido)benzyl)amino)-1H-pyrazolo[3,4-d]pyrimidine-3-carboxamide] | 2.87
CN(c1ccc(O)cc1CNc1nc(-c2cc(F)c(O)cc2CC(F)(F)F)nc2[nH]nc(C(=O)Nc3ccc(NCCO)nc3)c12)S(C)(=O)=O [Example 99, 6-(5-Fluoro-4-hydroxy-2-(2,2,2-trifluoroethyl)phenyl)-4-((5-hydroxy-2-(N-methylmethylsulfonamido)benzyl)amino)-N-(6-((2-hydroxyethyl)amino)pyridin-3-yl)-1H-pyrazolo[3,4-d]pyrimidine-3-carboxamide] | 2.47
CS(=O)(=O)N(CCO)c1ccccc1CNc1nc(-c2cc(F)c(O)cc2CC(F)(F)F)nc2[nH]nc(C(N)=O)c12 [Example 101, 6-(5-fluoro-4-hydroxy-2-(2,2,2-trifluoroethyl)phenyl)-4-((2-(N-(2-hydroxyethyl)methyl-sulfonamido)benzyl)amino)-1H-pyrazolo[3,4-d]pyrimidine-3-carboxamide] | > 10
CCN(c1ccccc1CNc1nc(-c2cc(F)c(O)cc2CC(F)(F)F)nc2[nH]nc(C(=O)NC)c12)S(C)(=O)=O [Example 103, 4-((2-(N-ethylmethylsulfonamido)benzyl)amino)-6-(5-fluoro-4-hydroxy-2-(2,2,2-trifluoroethyl)-phenyl)-N-methyl-1H-pyrazolo[3,4-d]pyrimidine-3-carboxamide] | 0.235
CNC(=O)c1n[nH]c2nc(-c3cc(F)c(O)cc3CC(F)(F)F)nc(NCc3cc(F)ccc3N(C)S(C)(=O)=O)c12 [Example 104, 4-((5-fluoro-2-(N-methylmethylsulfonamido)benzyl)amino)-6-(5-fluoro-4-hydroxy-2-(2,2,2-trifluoroethyl)phenyl)-N-methyl-1H-pyrazolo[3,4-d]pyrimidine-3-carboxamide] | 0.292
CNC(=O)c1n[nH]c2nc(-c3cc(F)c(O)cc3CC(F)(F)F)nc(NCc3cc(O)ccc3N(C)S(=O)(=O)c3ccccc3)c12 [Example 106, 4-((2-(N-Methylphenylsulfonamido)-5-hydroxybenzyl)amino)-6-(5-fluoro-4-hydroxy-2-(2,2,2-trifluoroethyl)phenyl)-N-methyl-1H-pyrazolo[3,4-d]pyrimidine-3-carboxamide] | 2.52
CCN(c1ccc(O)cc1CNc1nc(-c2cc(F)c(O)cc2CC(F)(F)F)nc2[nH]nc(C(N)=O)c12)S(=O)(=O)c1ccccc1 [Example 107, 4-((2-(N-ethylphenylsulfonamido)-5-hydroxybenzyl)amino)-6-(5-fluoro-4-hydroxy-2-(2,2,2-trifluoroethyl)phenyl)-1H-pyrazolo[3,4-d]pyrimidine-3-carboxamide] | 0.899
